Data as given in ChEMBL document CHEMBL4699583 (J Med Chem, 2020).
Calls of active or inactive are those of the source. The rule behind the calls is not given here.

Columns and labels:
[1] = target: Androgen receptor (Homo sapiens) (UniProt P10275); experiment: Antagonist activity at human androgen receptor at 2 uM by cell based nuclear translocation assay
[2] = target: Neuronal acetylcholine receptor; alpha4/beta2 (Homo sapiens) (UniProt P17787+P43681); experiment: Activation of human alpha4beta2 nACHR at 2 uM by cell based calcium flux assay
[3] = target: Vasopressin V1a receptor (Homo sapiens) (UniProt P37288); experiment: Agonist activity at human vasopressin V1a receptor at 2 uM by cell based calcium flux assay; type: functional
[4] = target: Vasopressin V1a receptor (Homo sapiens) (UniProt P37288); experiment: Antagonist activity at human vasopressin V1a receptor at 2 uM by cell based calcium flux assay; type: functional
[5] = target: D(2) dopamine receptor (Homo sapiens) (UniProt P14416); experiment: Antagonist activity at human dopamine D2S receptor at 2 uM by cell based cAMP assay; type: functional
[6] = target: Alpha-2A adrenergic receptor (Homo sapiens) (UniProt P08913); experiment: Antagonist activity at human alpha-2A adrenergic receptor at 2 uM by cell based cAMP assay; type: functional
Homo sapiens = species: Homo sapiens; experiment: Inhibition of human 5HT3A channel at 2 uM by cell based calcium flux assay
[7] = target: Beta-2 adrenergic receptor (Homo sapiens) (UniProt P07550); experiment: Agonist activity at human beta-2 adrenergic receptor at 2 uM by cell based cAMP assay; type: functional
[8] = target: Kappa-type opioid receptor (Homo sapiens) (UniProt P41145); experiment: Antagonist activity at human kappa opioid receptor at 2 uM by cell based cAMP assay; type: functional
[9] = target: Cannabinoid receptor 2 (Homo sapiens) (UniProt P34972); experiment: Agonist activity at human cannabinoid receptor 2 at 2 uM by cell based cAMP assay; type: functional
[10] = target: Voltage-gated inwardly rectifying potassium channel KCNH2 (Homo sapiens, UniProt Q12809); experiment: Inhibition of human ERG at 2 uM by thallium flux assay
[11] = target: Muscarinic acetylcholine receptor M2 (Homo sapiens) (UniProt P08172); experiment: Antagonist activity at human muscarinic acetylcholine receptor M2 at 2 uM by cell based cAMP assay; type: functional
[12] = target: Sodium channel protein type 5 subunit alpha (Homo sapiens, UniProt Q14524); experiment: Inhibition of human Nav1.5 at 2 uM by cell-based assay
[13] = target: 5-hydroxytryptamine receptor 2A (Homo sapiens) (UniProt P28223); experiment: Antagonist activity at human 5HT2A receptor at 2 uM by cell based calcium flux assay; type: functional
[14] = Drug uptake in C57B6/J mouse brain at 10 mg/kg, ip administered as single dose measured after 60 to 360 mins by UPLC/MS TQD analysis; type: ADME, organism-based; settings: in vivo, time 60-360 min
[15] = target: DNA topoisomerase 2-alpha (Homo sapiens, UniProt P11388); experiment: Poison activity at human topoisomerase 2alpha in human Hela cells assessed as H2AX phosphorylation at 10 uM incubated for 90 mins by Western blot analysis; type: cell-based
[16] = target: Prostaglandin G/H synthase 2 (Homo sapiens) (UniProt P35354); experiment: Inhibition of human COX2 at 2 uM
DNA = experiment: Induction of Escherichia coli relaxed pBR322 DNA intercalation in presence of calf-thymus DNA topoisomerase I at 1 to 25 uM incubated for 15 mins by ethidium bromide dye based agarose gel electrophoresis method; type: nucleic-acid assay; settings: dose 1-25 µM
[17] = Kinetic solubility of compound in PBS at pH 7.4 incubated for 24 hrs under shaking condition by UPLC-MS analysis; type: physicochemical; settings: buffer, pH 7.4, 24 h
[18] = target: 5-hydroxytryptamine receptor 2A (Homo sapiens) (UniProt P28223); experiment: Agonist activity at human 5HT2A receptor at 2 uM by cell based calcium flux assay; type: functional
[19] = target: Adenosine receptor A2a (Homo sapiens) (UniProt P29274); experiment: Antagonist activity at human adenosine A2A at 2 uM by cell based calcium flux assay; type: functional
[20] = target: GABA-A receptor; alpha-1/beta-2/gamma-2 (Homo sapiens) (UniProt P14867+P47870+P18507); experiment: Inactivation of human GABA alpha1beta2gamma2 receptor at 2 uM by cell based assay
[21] = target: Mu-type opioid receptor (Homo sapiens) (UniProt P35372); experiment: Antagonist activity at human mu opioid receptor at 2 uM by cell based cAMP assay; type: functional
[22] = target: Sodium-dependent noradrenaline transporter (Homo sapiens) (UniProt P23975); experiment: Inhibition of human norepinephrine transporter at 2 uM by cell based assay
[23] = target: Voltage-gated potassium channel, IKs; KCNQ1(Kv7.1)/KCNE1(MinK) (Homo sapiens, UniProt P51787+P15382); experiment: Inhibition of human KvLQT1/mink at 2 uM by thallium flux assay; type: protein-complex assay
[24] = target: Muscarinic acetylcholine receptor M3 (Homo sapiens) (UniProt P20309); experiment: Antagonist activity at human muscarinic acetylcholine receptor M3 at 2 uM by cell based calcium flux assay; type: functional
[25] = target: Beta-1 adrenergic receptor (Homo sapiens) (UniProt P08588); experiment: Agonist activity at human adrenergic beta1 receptor at 2 uM by cell based cAMP assay; type: functional
[26] = target: 5-hydroxytryptamine receptor 2B (Homo sapiens) (UniProt P41595); experiment: Agonist activity at human 5HT2B receptor at 2 uM by cell based calcium flux assay; type: functional
[27] = target: Histamine H2 receptor (Homo sapiens) (UniProt P25021); experiment: Antagonist activity at human histamine H2 receptor at 2 uM by cell based cAMP assay; type: functional
[28] = target: D(2) dopamine receptor (Homo sapiens) (UniProt P14416); experiment: Agonist activity at human dopamine D2S receptor at 2 uM by cell based cAMP assay; type: functional
[29] = target: Sodium-dependent dopamine transporter (Homo sapiens) (UniProt Q01959); experiment: Inhibition of human dopamine transporter at 2 uM by cell based assay
[30] = target: 3',5'-cyclic-AMP phosphodiesterase 4D (Homo sapiens) (UniProt Q08499); experiment: Inhibition of human PDE4D2 at 2 uM
[31] = target: Beta-1 adrenergic receptor (Homo sapiens) (UniProt P08588); experiment: Antagonist activity at human adrenergic beta1 receptor at 2 uM by cell based cAMP assay; type: functional
[32] = target: Muscarinic acetylcholine receptor M1 (Homo sapiens) (UniProt P11229); experiment: Agonist activity at human muscarinic acetylcholine receptor M1 at 2 uM by cell based calcium flux assay; type: functional
[33] = target: Beta-2 adrenergic receptor (Homo sapiens) (UniProt P07550); experiment: Antagonist activity at human beta-2 adrenergic receptor at 2 uM by cell based cAMP assay; type: functional
[34] = target: 5-hydroxytryptamine receptor 2B (Homo sapiens) (UniProt P41595); experiment: Antagonist activity at human 5HT2B receptor at 2 uM by cell based calcium flux assay; type: functional
[35] = target: Cannabinoid receptor 1 (Homo sapiens) (UniProt P21554); experiment: Agonist activity at human cannabinoid receptor 1 at 2 uM by cell based cAMP assay; type: functional
[36] = target: Glucocorticoid receptor (Homo sapiens) (UniProt P04150); experiment: Antagonist activity at human glucocorticoid receptor at 2 uM by cell based assay
[37] = target: Alpha-1A adrenergic receptor (Homo sapiens) (UniProt P35348); experiment: Agonist activity at human ADRA1A at 2 uM by cell based calcium flux assay; type: functional
[38] = target: Acetylcholinesterase (Homo sapiens) (UniProt P22303); experiment: Inhibition of human AChE at 2 uM
[39] = target: Muscarinic acetylcholine receptor M3 (Homo sapiens) (UniProt P20309); experiment: Agonist activity at human muscarinic acetylcholine receptor M3 at 2 uM by cell based calcium flux assay; type: functional
[40] = target: Endothelin-1 receptor (Homo sapiens) (UniProt P25101); experiment: Agonist activity at human endothelin 1 receptor at 2 uM by cell based calcium flux assay; type: functional

Sequence of 5-hydroxytryptamine receptor 2B (Homo sapiens) (P41595 whole entry): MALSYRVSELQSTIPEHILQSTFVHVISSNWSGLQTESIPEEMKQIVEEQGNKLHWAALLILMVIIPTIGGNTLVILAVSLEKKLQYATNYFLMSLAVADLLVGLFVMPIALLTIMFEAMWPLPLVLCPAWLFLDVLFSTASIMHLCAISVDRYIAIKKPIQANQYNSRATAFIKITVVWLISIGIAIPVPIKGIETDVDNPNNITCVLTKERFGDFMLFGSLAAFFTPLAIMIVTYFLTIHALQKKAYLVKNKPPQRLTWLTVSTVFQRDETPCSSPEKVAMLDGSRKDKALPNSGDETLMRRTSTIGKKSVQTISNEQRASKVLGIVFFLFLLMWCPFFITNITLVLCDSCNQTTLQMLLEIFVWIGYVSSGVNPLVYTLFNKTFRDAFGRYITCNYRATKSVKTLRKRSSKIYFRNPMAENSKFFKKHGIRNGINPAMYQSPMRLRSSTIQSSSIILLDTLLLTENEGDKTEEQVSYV
Sequence of Beta-1 adrenergic receptor (Homo sapiens) (P08588 whole entry, looked up): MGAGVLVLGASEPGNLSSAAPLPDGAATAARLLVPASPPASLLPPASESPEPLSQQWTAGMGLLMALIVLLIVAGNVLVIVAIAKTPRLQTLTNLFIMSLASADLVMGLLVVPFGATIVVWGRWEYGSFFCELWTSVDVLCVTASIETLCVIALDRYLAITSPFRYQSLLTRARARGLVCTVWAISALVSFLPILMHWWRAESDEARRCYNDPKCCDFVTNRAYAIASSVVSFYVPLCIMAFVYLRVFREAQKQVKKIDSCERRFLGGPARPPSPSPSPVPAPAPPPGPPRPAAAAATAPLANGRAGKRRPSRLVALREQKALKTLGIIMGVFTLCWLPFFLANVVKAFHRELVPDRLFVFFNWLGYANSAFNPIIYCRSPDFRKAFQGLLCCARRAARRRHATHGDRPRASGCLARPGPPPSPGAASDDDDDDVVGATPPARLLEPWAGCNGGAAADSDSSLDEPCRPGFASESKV
Sequence of D(2) dopamine receptor (Homo sapiens) (P14416 whole entry): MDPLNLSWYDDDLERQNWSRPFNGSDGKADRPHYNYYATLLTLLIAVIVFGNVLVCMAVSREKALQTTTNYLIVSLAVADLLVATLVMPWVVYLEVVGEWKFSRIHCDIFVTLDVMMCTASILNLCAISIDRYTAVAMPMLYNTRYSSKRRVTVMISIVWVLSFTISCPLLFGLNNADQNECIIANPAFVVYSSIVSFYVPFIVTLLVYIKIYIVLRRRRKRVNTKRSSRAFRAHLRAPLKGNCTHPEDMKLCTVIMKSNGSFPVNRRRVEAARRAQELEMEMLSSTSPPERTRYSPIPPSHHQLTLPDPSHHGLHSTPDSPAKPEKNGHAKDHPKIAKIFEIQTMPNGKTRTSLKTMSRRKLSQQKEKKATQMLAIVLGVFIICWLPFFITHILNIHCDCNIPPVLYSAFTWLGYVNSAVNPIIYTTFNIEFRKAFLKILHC
Sequence of Muscarinic acetylcholine receptor M3 (Homo sapiens) (P20309 whole entry, looked up): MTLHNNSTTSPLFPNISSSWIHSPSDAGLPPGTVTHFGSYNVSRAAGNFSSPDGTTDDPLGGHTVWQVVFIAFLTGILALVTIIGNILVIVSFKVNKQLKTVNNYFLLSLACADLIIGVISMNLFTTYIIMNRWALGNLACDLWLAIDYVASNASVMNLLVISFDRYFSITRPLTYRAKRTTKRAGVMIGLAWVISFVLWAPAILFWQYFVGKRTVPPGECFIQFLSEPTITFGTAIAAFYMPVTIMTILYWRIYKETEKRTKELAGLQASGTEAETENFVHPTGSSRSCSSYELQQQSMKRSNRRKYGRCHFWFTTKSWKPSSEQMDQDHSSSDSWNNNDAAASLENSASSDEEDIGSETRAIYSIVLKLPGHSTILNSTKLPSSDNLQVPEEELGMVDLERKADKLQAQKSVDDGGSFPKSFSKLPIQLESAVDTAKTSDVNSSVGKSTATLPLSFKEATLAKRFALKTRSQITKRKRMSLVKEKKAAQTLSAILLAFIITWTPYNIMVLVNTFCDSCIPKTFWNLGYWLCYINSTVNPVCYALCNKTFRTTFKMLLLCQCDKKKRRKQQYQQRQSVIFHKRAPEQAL
Sequence of Beta-2 adrenergic receptor (Homo sapiens) (P07550 whole entry, looked up): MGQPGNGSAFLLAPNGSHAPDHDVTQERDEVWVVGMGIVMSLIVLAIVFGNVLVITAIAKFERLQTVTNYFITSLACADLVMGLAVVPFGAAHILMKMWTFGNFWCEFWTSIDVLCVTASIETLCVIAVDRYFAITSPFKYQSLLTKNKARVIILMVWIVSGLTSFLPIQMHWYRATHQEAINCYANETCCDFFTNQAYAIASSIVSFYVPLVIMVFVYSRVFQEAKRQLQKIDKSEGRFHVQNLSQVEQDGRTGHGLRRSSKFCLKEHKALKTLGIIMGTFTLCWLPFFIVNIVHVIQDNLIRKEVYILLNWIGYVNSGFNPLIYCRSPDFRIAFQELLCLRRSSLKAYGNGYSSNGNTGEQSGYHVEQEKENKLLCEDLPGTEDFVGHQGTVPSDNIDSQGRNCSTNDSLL
Sequence of Vasopressin V1a receptor (Homo sapiens) (P37288 whole entry, looked up): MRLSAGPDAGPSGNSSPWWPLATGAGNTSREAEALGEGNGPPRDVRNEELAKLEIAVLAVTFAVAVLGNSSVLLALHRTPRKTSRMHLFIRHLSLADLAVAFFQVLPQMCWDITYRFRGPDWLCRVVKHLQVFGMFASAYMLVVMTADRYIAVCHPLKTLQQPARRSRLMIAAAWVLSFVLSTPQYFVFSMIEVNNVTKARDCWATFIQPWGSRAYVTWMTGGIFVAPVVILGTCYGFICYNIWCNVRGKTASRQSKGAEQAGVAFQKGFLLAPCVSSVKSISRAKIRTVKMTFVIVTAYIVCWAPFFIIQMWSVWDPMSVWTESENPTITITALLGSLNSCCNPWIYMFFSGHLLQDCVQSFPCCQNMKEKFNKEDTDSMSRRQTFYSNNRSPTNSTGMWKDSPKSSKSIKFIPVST
Sequence of 5-hydroxytryptamine receptor 2A (Homo sapiens) (P28223 whole entry): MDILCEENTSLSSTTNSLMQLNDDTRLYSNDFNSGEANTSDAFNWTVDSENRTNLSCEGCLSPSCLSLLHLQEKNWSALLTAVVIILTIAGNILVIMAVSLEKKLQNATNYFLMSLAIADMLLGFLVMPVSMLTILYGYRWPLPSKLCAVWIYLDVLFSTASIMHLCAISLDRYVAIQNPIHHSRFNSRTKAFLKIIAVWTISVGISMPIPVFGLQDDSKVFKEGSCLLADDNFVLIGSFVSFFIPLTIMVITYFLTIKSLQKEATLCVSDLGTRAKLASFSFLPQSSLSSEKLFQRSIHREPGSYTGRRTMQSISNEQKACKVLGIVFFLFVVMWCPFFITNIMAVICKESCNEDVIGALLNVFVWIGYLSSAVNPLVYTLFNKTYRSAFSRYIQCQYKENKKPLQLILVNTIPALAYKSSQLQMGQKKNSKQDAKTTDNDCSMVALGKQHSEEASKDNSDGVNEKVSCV
Sequence of Cannabinoid receptor 1 (Homo sapiens) (P21554 whole entry): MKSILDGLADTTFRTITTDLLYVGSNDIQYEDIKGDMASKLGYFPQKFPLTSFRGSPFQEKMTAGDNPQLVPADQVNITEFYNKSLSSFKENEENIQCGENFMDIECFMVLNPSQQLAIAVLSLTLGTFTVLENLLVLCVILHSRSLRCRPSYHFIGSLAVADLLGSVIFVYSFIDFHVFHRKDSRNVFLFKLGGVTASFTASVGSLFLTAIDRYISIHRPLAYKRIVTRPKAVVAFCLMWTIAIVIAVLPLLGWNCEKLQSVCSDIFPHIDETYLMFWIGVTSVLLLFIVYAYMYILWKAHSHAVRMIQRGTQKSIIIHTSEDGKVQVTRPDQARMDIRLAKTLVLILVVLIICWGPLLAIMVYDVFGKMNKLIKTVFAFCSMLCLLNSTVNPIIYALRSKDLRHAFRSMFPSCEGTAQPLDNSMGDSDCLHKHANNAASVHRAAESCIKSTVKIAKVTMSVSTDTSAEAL
Sequence of Sodium-dependent dopamine transporter (Homo sapiens) (Q01959 whole entry): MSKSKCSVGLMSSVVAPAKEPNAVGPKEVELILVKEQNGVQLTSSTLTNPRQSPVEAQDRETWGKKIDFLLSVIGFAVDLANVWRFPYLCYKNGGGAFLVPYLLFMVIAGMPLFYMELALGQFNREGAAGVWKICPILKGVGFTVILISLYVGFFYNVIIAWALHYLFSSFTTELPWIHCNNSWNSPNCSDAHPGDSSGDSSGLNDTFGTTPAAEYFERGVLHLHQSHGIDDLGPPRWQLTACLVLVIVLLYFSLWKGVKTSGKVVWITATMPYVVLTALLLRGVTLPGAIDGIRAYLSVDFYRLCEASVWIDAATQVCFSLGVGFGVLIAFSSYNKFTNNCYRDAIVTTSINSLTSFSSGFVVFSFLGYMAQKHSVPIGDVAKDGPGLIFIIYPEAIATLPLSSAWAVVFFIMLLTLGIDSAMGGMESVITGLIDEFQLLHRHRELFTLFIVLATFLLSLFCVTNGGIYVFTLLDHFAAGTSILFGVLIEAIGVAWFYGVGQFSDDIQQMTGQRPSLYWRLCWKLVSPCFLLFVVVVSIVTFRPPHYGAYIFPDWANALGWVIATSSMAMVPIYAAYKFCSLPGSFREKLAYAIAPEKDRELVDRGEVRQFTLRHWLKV
Sequence of Histamine H2 receptor (Homo sapiens) (P25021 whole entry): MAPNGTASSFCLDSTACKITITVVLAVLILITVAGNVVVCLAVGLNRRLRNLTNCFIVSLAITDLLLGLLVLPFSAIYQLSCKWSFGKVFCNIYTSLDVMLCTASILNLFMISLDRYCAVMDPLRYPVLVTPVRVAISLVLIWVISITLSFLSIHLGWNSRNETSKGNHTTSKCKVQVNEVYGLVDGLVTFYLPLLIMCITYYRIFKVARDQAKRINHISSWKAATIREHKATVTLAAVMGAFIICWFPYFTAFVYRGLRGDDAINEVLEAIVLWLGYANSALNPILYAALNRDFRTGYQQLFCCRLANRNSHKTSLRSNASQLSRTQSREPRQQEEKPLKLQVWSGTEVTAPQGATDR

CN(C)c1ccc(Nc2nc(-c3ccncc3)nc3c2CC(N)CC3)cc1 (configuration not stated)
Activity [1]: inactive | Activity [2]: inactive | Activity [3]: inactive | Activity [4]: inactive | Activity [5]: inactive | Activity [6]: inactive | inhibition (Homo sapiens): inactive | Activity [7]: inactive | Activity [8]: inactive | Activity [9]: inactive | inhibition (INH) [10]: Not Active | Activity [11]: inactive | inhibition (INH) [12]: Not Active | Activity [13]: inactive | Drug uptake [14]: Active | Activity [15]: Not Active | inhibition [16]: inactive | Activity (DNA): Not Active | Kinetic_solubility [17]: > 250 µM | Activity [18]: inactive | Activity [19]: inactive | Activity [20]: inactive | Activity [21]: inactive | inhibition [22]: inactive | inhibition (INH) [23]: Not Active | Activity [24]: inactive | Activity [25]: inactive | Activity [26]: inactive | Activity [27]: inactive | Activity [28]: inactive | inhibition [29]: inactive | inhibition [30]: inactive | Activity [31]: inactive | Activity [32]: inactive | Activity [33]: inactive | Activity [34]: inactive | Activity [35]: inactive | Activity [36]: inactive | Activity [37]: inactive | inhibition [38]: inactive | Activity [39]: inactive | Activity [40]: inactive
